Source: patent publication US7091207B2, “Method of treating myocardial infarction with PDE-5 inhibitors” (Virginia Commonwealth University, priority 2002, dated 2006)
Marks after values point to notes of the source that are not given here.

What was measured:
[1] = tested on: neonatal mouse cardiac myocytes; assay type: cell-based; details: for effect of channel blocker on the protective effect of sildenafil: 5-hydroxydecanoate 100 μM, HMR1098 30 μM
Procedure: Neonatal mouse myocytes in culture are incubated with 0.5–5 μM of DOX (in the presence or absence of 1 μM sildenafil) for 18 hours. The cells are then incubated with drug free growth medium for an additional 24 hours. Cytotoxicity of DOX is quantitatively assessed by measuring the percentage of cells killed and the amount of creatine kinase (CK) released into the media. In addition, a trypan blue exclusion assay and propidium iodide nuclear stain are used to quantitate cell death. Since DOX induces cardiomyopathy through the release of reactive oxygen species, lipid peroxidation in the cells is also measured as an index of oxidative damage.
Neonatal mouse cardiac myocyte cultures are used for membrane potential studies. Cells in culture are treated with 0.5–5 μM of DOX (in the presence or absence of 1 μM sildenafil) for 18 hours. The cells are then incubated with drug free growth medium for an additional 24 hours. Additional groups are included where the cells are treated with a mitoKATP channel blocker (5-hydroxydecanoate, 100 μM), surface channel blocker (HMR1098, 30 μM) or cyclosporine, a mitochondrial membrane potential (Ψm) blocker (5 μM). For assessment of apoptosis, the TUNEL assay is used, which is an accurate method for distinguishing apoptosis from necrosis by specifically detecting DNA cleavage and chromatin condensation characteristic of apoptosis. Additionally, positive TUNEL staining directly correlates with the more typical biochemical and morphological aspects of apoptosis. Since an understanding of cell morphology is critical for data interpretation, apoptotic morphology is simultaneously assessed according to accepted scientific criteria previously described (Nor-Avi, 1999). The in situ staining of DNA strand breaks detected by the TUNEL assay along with subsequent morphological observation via epifluorescent, confocal, and electron microscopy, provides significant and reliable data regarding the identification of apoptotic cells, even in tissue samples where apoptosis represents a small segment of the population (Manning 1994). In addition, several other key indicators of apoptosis including annexin-V, cytosolic cytochrome c, caspase 3, caspase 8, as well as poly (ADP-ribose) polymerase cleavage in these groups, are measured. Mitochondrial membrane potential (Ψm) using a fluorescent indicator probe, JC-1 (Molecular Probes, Eugene, Oreg.) is measured.

[2] = Systemic hemodynamics (blood pressure, heart rate, rate pressure product) in rabbits; assay type: in vivo, rabbit; details: 5-HD 5 mg/kg IV 10 min prior to ischemia, control rabbits
[3] = tested on: rabbit heart, ischemia/reperfusion injury; experiment: In situ rabbit model of myocardial infarction (30 min coronary occlusion, 180 min reperfusion), infarct size by TTC staining; assay type: in vivo; details: control rabbits, 5-HD 5 mg/kg IV 10 min prior to ischemia
[4] = tested on: mouse heart, global I-R injury; experiment: Isolated perfused mouse heart (Langendorff), 20 min global ischemia and 30 min reperfusion after in vivo treatment; details: saline+1400W; 1400W 10 mg/kg IP 30 minutes before I-R
Procedure: Adult male outbred ICR mice were supplied by Harlan Inc (Indianapolis, Ind.). Viagra pills (Pfizer Inc) were ground into powder and dissolved in saline. The drug solution was filtered (0.45-μm pore size) before intraperitoneal injection. 1400W, an iNOS inhibitor, was obtained from Alexis. We used an isolated perfused mouse heart model subjected to 20 minutes of global ischemia and 30 minutes of reperfusion (Langendorff mode). Myocardial I-R injury was assessed by measuring infarct size, contractile function, and coronary flow as described previously (Xi, 1999). Twenty-eight mice were randomized into the following 4 groups: (n=6 to 9 per group): (1) saline (0.15 mL IP), (2) sildenafil (0.7 mg/kg IP, equivalent to 50 mg Viagra pill used for patients with erectile dysfunction, given 24 hours before I-R), (3) sildenafil+1400W (10 mg/kg IP, 14 given 30 minutes before I-R), and (4) saline+1400W. Measurement of NOS Isoforms Mice were treated with sildenafil (0.7 mg/kg IP), and their hearts were removed at 15, 30, and 45 minutes and 1, 2, 3, 4, and 24 hours after injection (n=3 per group). Three nontreated hearts were used as controls. Tissue samples were ground under liquid nitrogen and homogenized with TRI Reagent (Molecular Research Center) for extracting total RNA, which was reverse-transcribed into cDNA at 50° C. for 30 minutes using a OneStep reverse transcription (RT)-polymerase chain reaction (PCR) kit from Qiagen. The oligonucleotide primers were synthesized on the basis of published sequences for murine iNOS, eNOS, and GAPDH15 (Integrated DNA Technology). The RT-PCR products were electrophoresed on 1.5% Trisacetate-EDTA agarose gel. The target bands were identified on the basis of their specific size using DNA standards. iNOS and eNOS proteins were measured by Western blots as described previously. 13 In brief, triplicate heart samples were collected 24 hours after saline or sildenafil injection and homogenized in ice-cold RIPA buffer (Upstate Biotechnology). The homogenate was centrifuged at 10,000 g for 10 minutes at 4° C., and supernatant was recovered as the total cellular protein. Total protein (60 μg) from each sample was separated by SDS-PAGE on 10% acrylamide gels, transferred to a polyvinylidine difluoride membrane, and then blocked with 5% nonfat dry milk in Tris-buffered saline. The membrane was subsequently incubated with a rabbit polyclonal antibody (dilution 1:500, Santa Cruz) reacting specifically to iNOS, eNOS, or actin. The secondary antibody was a horseradish peroxidase-conjugated anti-rabbit IgG (1:1000 dilution, Amersham). The membranes were developed using enhanced chemiluminescence and exposed to x-ray film. The mRNA and protein expression were quantified by scanning each of the RT-PCR or Western blot band using a densitometer (Bioquant 98). […]

iNOS vs nNOS = details: cited from earlier work
[5] = tested on: DOX-related cardiac complications; details: clinical use; cited from earlier work

Question: Which “effect of channel blocker on the protective effect of sildenafil” value [1] does the source give for `CCCCCC(O)CCCC(=O)O` (stereo not shown) [5-HD, 5-hydroxydecanoate] here?
Answer: abolished

Question: And the HR ([2]; 30-min Ischemia)?
Answer: 185 ± 8 beats/min

Question: And the MAP ([2]; 30-min Ischemia)?
Answer: 95 ± 5^a mmHg

Question: What about the “RPP (systolic arterial pressure × HR)” value ([2]; 30-min Ischemia) of the same compound?
Answer: 19215 ± 999

Question: And the HR ([2]; Baseline)?
Answer: 171 ± 13^d,e beats/min

Question: And the MAP ([2]; Baseline)?
Answer: 120 ± 4 mmHg

Question: What about the “RPP (systolic arterial pressure × HR)” value ([2]; Baseline) of the same compound?
Answer: 22477 ± 1849

Question: And the HR ([2]; Preischemia)?
Answer: 178 ± 13 beats/min

Question: What about the MAP ([2]; Preischemia) of the same compound?
Answer: 110 ± 6 mmHg

Question: What about the “RPP (systolic arterial pressure × HR)” value ([2]; Preischemia) of the same compound?
Answer: 20977 ± 1373

Question: And the HR ([2]; Reperfusion (60 min))?
Answer: 162 ± 8 beats/min

Question: And the MAP ([2]; Reperfusion (60 min))?
Answer: 97 ± 5^a mmHg

Question: What about the “RPP (systolic arterial pressure × HR)” value ([2]; Reperfusion (60 min)) of the same compound?
Answer: 17050 ± 1132

Question: What about the HR ([2]; Reperfusion (120 min)) of the same compound?
Answer: 160 ± 8 beats/min

Question: And the MAP ([2]; Reperfusion (120 min))?
Answer: 91 ± 5^a mmHg

Question: And the “RPP (systolic arterial pressure × HR)” value ([2]; Reperfusion (120 min))?
Answer: 15770 ± 984^a

Question: What about the HR ([2]; Reperfusion (180 min)) of the same compound?
Answer: 160 ± 7 beats/min

Question: What about the MAP ([2]; Reperfusion (180 min)) of the same compound?
Answer: 91 ± 7^a mmHg

Question: And the “RPP (systolic arterial pressure × HR)” value ([2]; Reperfusion (180 min))?
Answer: 16300 ± 1503^a

Question: What about the infarct size [3] of the same compound?
Answer: 33.5±1.9 % of risk area

Question: For `CC(=N)NCc1cccc(CN)c1` [1400W], which infarct size [4] is on record?
Answer: 24.5±1.0%

Question: What about the “selectivity for iNOS vs nNOS” value (iNOS vs nNOS) of the same compound?
Answer: approximately 40 fold

Question: What does the source list for `COc1cccc2c1C(=O)c1c(O)c3c(c(O)c1C2=O)C[C@@](O)(C(=O)CO)C[C@@H]3O[C@H]1C[C@H](N)[C@H](O)[C@H](C)O1` [DOX, Doxorubicin]?
Answer: apoptosis indicators (TUNEL, cytochrome c translocation, caspase-3, PARP cleavage, Ψm dissipation) ([1]; 0.5–5 μM DOX for 18 hours): TUNEL positivity; necrotic cell death (CK release, uptake of trypan blue) ([1]; 0.5–5 μM DOX for 18 hours): increased necrotic cell death

Question: Which “effect of channel blocker on the protective effect of sildenafil” value [1] does the source give for `CNC(=S)NS(=O)(=O)c1cc(CCNC(=O)c2cc(Cl)ccc2OC)ccc1OC` [HMR1098] here?
Answer: not by HMR1098

Question: Which “selectivity for iNOS vs nNOS” value (iNOS vs nNOS) does the source give for `CC(=N)NCCCC[C@H](N)C(=O)O.Cl` [L-NIL, L-N-6-(1-iminoethyl)lysine hydrochloride] here?
Answer: approximately 40 fold

Question: With `CSC(N)=NCCC[C@H](N)C(=O)O` [SMT, S-methyl-L-thiocitrulline] as the compound, how does the “selectivity for iNOS vs nNOS” value (iNOS vs nNOS) read?
Answer: approximately 40 fold

Question: For `C[C@@H](CN1CC(=O)NC(=O)C1)N1CC(=O)NC(=O)C1` [dexrazoxane], which “reduction of DOX-related cardiac complications” value [5] is on record?
Answer: 50%
